For eleven molecules, IC50 and Ki results are on record in ChEMBL document CHEMBL1152106, “Derivatives of 5-amidine indole as inhibitors of thrombin catalytic activity” (Bioorg Med Chem Lett, 1996).

In general, IC50 refers to the midpoint of a concentration-inhibition curve. A low value points to higher potency. In general, Ki refers to a measure of affinity in units of concentration, obtained from inhibition or displacement. Lower therefore signals higher affinity.

For one assay, the target named is T1, Prothrombin (Homo sapiens, UniProt P00734). As to the kind of experiment: Compound was evaluated for inhibition of human alpha-thrombin catalytic activity.
In turn, `NCc1ccc2[nH]c(C(Cc3ccccc3F)c3ccccc3F)cc2c1` (configuration not stated) showed a half-maximal inhibitory concentration (IC50) of 59 µM.
Consider `N=C(N)c1ccc2[nH]c(-c3ccccc3)cc2c1`, for which the half-inhibitory concentration (IC50) was 19 µM.
The molecule `N=C(N)c1ccc2[nH]c3c(c2c1)CCCC3` came in with a concentration for half-maximal inhibition (IC50) of 20 µM.
Same read-out and setting: the value for `N=C(N)c1ccc2[nH]c(-c3ccccc3O)cc2c1` was 38 µM; that for `N=C(N)c1ccc2[nH]c(C(Cc3ccccc3F)c3ccccc3F)cc2c1` (configuration not stated) was 15 µM.
Still for that read-out and setting: the value for `N=C(N)c1ccc2[nH]c(Cc3cccc(CCc4ccccc4)c3)cc2c1` was 2.4 µM; that for `N=C(N)c1ccc2[nH]c(Cc3ccccc3)cc2c1` was 1.4 µM; that for `N=C(N)c1ccc2[nH]c(Cc3cccc(Oc4ccccc4)c3)cc2c1` was 2 µM.
Same read-out and setting: in the case of `N=C(N)c1ccc2[nH]c(Cc3ccccc3F)cc2c1` it was 36 µM; in that of `N=C(N)c1ccc2[nH]ccc2c1`, 22 µM.
Molecule `Cc1c(-c2ccccc2)[nH]c2ccc(C(=N)N)cc12` gave an IC50 of 66 µM.

For a further assay, the target named is T1, Prothrombin. Description: Compound was evaluated for inhibition of human alpha-thrombin catalytic activity.
Regarding `N=C(N)c1ccc2[nH]c(Cc3ccccc3)cc2c1`, the Ki was determined as 0.26 µM.
